Source: patent US10653689B2, “Combination-based treatment method” (priority 2014, dated 2020)

Test system: BRCA1-deficient human breast cancer cell line, MX-1
Assay: Tumor growth delay in MX-1 human breast cancer model in mice
Assay type: in vivo
Set-up: Median TTE: unit not given beside the values
Method: Cancerous cells from the BRCA1-deficient human breast cancer cell line, MX-1, were injected subcutaneously in female mice. […]
Animal weight, clinical observations and tumor volume were monitored twice/week until the endpoint (2000 mm^3 of tumor volume or Day 88) was met.
Efficacy was measured by tumor growth delay and regression response rate.

[1] = rucaparib 30 mg/kg po q.d. × 21
[2] = rucaparib 150 mg/kg po q.d. × 21

Compound: CNCc1ccc(-c2[nH]c3cc(F)cc4c3c2CCNC4=O)cc1 [rucaparib]
- Median TTE [1]: 39
- Regressions CR [1]: 0%
- Regressions PR [1]: 0%
- Regressions TFS [1]: 0%
- Statistical Results For Groups Tested [1]: Significant against vehicle (p ≤ 0.05)
- T-C [1]: 14 days
- TGD [1]: 56%
- Median TTE [2]: 43
- Regressions CR [2]: 0%
- Regressions PR [2]: 0%
- Regressions TFS [2]: 0%
- Statistical Results For Groups Tested [2]: Significant against vehicle (p ≤ 0.01)
- T-C [2]: 18 days
- TGD [2]: 73%
- efficacy (mean tumor volumes, FIG. 1) (single agent, at both the 30 mg/kg and 150 mg/kg dosages): only marginally effective

Compound: pentaerythritol-based multi-arm polymer conjugate of irinotecan [PBMAPCI]
- Median TTE (PBMAPCI 10 mg/kg iv qwk × 4): 57
- Regressions CR (PBMAPCI 10 mg/kg iv qwk × 4): 10%
- Regressions PR (PBMAPCI 10 mg/kg iv qwk × 4): 0%
- Regressions TFS (PBMAPCI 10 mg/kg iv qwk × 4): 10%
- Statistical Results For Groups Tested (PBMAPCI 10 mg/kg iv qwk × 4): Significant against vehicle (p ≤ 0.001)
- T-C (PBMAPCI 10 mg/kg iv qwk × 4): 32 days
- TGD (PBMAPCI 10 mg/kg iv qwk × 4): 129%
- Median TTE (PBMAPCI 50 mg/kg iv qwk × 4): 88
- Regressions CR (PBMAPCI 50 mg/kg iv qwk × 4): 100%
- Regressions PR (PBMAPCI 50 mg/kg iv qwk × 4): 0%
- Regressions TFS (PBMAPCI 50 mg/kg iv qwk × 4): 100%
- Statistical Results For Groups Tested (PBMAPCI 50 mg/kg iv qwk × 4): Significant against vehicle (p ≤ 0.001)
- T-C (PBMAPCI 50 mg/kg iv qwk × 4): 63 days
- TGD (PBMAPCI 50 mg/kg iv qwk × 4): 252%
